From publication PMC10754118, “Lipophilic Nucleoside Triphosphate Prodrugs of Anti‐HIV Active Nucleoside Analogs as Potential Antiviral Compounds” (Advanced Science, 2023)

Legend:
in vitro [1] = settings: for half-life at 0.86 mM: human, plasma
Method: First prepare 50 mM solutions of TriPPPro-compounds 10 and 20 in DMSO. […]
First prepare 3.0 mM hydrolysis solutions of Tri PPPro-compounds 10 and 20 in DMSO and H2O: 21 µL stock solution (50 mM in DMSO) and 154 µL DMSO, and 175 µL Milli-Q water. Three-twelve different samples (20 […]
The calculation of t1/2 was obtained using Origin again.
(§1) Part 7. Hydrolysis of TriPPPro-compounds 10 and 20 in human plasma.
µL 3.0 mM hydrolysis solutions) were prepared in 2 mL Eppendorf® vials. Then, aliquots of 50 µL human Plasma (Heparin or Citrate) were added to these samples and the reaction was started. The samples were […]
incubated at 37 °C in a thermomixer for different time periods. The reaction was stopped by addition of 150 µL MeOH and kept on ice for 5 min. After centrifugation at 14,000 rpm for 22 min, the supernatants were filtered (Chromafil RC-20/15 MS, 0.2 μm) and stored in liquid nitrogen. When testing, aliquots of 25 0r 30 µL (injection volume) were analyzed by analytical HPLC (HPLC Method). The calculation of t1/2 was obtained using Origin […]
Part 8. Preparation of cell extracts and human plasma. […]

HIV‐2 [ROD] = assay: Anti-HIV activity, HIV-2 in wild-type CEM/0 cells; assay type: cell-based; settings: Human immunodeficiency virus 2, CCRF-CEM; wild-type CEM/0 cells, mean ±SD n = 2–3; read-out: Antiviral activity CEM/0 HIV‐2 [ROD] EC50
Method: (§2) Part 9. Anti-HIV activity assay.
(§3) The produce was used as previously reported. 5 Inhibition of HIV-1(IIIB)- and HIV-2(ROD)-induced cytopathogenicity in wild-type CEM/0 and thymidine kinase-deficient CEM/TK– cell cultures was measured in […]
(§4) containing appropriate dilutions of the test compounds. After 4−5 days of incubation at 37 °C in a CO2-controlled humidified atmosphere, CEM giant (syncytium) cell formation was examined microscopically. The […]
(§5) giant cell formation by 50%.
(§6) Part 10. Primer-extension assays. […]

pig liver esterase (PLE) = assay: Hydrolysis with pig liver esterase (PLE); assay type: in vitro ADME; settings: pig liver esterase (PLE) in PBS, PLE in PBS pH 7.3, 37 °C, read-out: PLE t 1/2 (converted)
Excerpt: Next, TriPPPro‐compounds 10 and 20 were exposed to PLE in PBS (pH 7.3) and the half‐lives of TriPPPro‐compounds 10 and 20 are listed in Table 1. […] In contrast, the cleavage of the AB (C4) masking group in TriPPPro‐compounds 10by–hy and 10bz–hz was triggered by ester hydrolysis and yielded the corresponding γ‐alkylated nucleoside triphosphate derivatives 20 (Figure 3B,D) and 21 (Figures S17 and S18, Supporting Information), respectively. […] Moreover, a very small amount of NDPs was observed, probably due to a reaction involving a nucleophilic reaction at the γ‐phosphate or γ‐phosphonate moiety (pathways d and f, Scheme 5). […]
(§7) Part 4. Chemical Hydrolysis of TriPPPro-compounds 10 and 20.
Second prepare 1.9 mM hydrolysis
Part 5. Hydrolysis of TriPPPro-compounds 10 and 20 with PLE .
Second, 125 µL DMSO and 833 µL
62.5 µL of PLE solution in PBS (100
mixture was stored in the freezer (- 30 °C).
by analytical HPLC (HPLC Method).
similar to that for the chemical hydrolysis studies. […]
(§8) Then, aliquots of 50 µL human

in vitro [2] = settings: human
Method: The hydrolysis properties of TriPPPro‐compounds 10 and 20 were evaluated in phosphate buffer saline (PBS, pH 7.3), pig liver esterase (PLE) or CEM/0 cell extracts. In both cases, hydrolysis products were analyzed by means of analytical RP18‐HPLC and the hydrolysis half‐lives (Table 1 , t1/2 ) of TriPPPro‐compounds 10 and 20 were calculated after complete consumption of the starting materials.
The hydrolysis of TriPPPro‐compounds 10 and 20 was carried out with CEM/0 cell extracts as well. […]
Part 6. Enzyme-Catalyzed Hydrolysis of TriPPPro-compounds 10 and 20 in CEM Cell […]
First prepare 3.0 mM hydrolysis solutions of Tri PPPro-compounds 10 and 20 in DMSO and H2O: 21 µL stock solution (50 mM in DMSO) and 154 µL DMSO, and 175 µL Milli-Q water. Three-twelve different samples (20 µL 3.0 mM hydrolysis solutions) were prepared in 2 mL Eppendorf® vials. Then, aliquots of 50 µL human CEM cell extracts were added to these samples and the reaction was started. The samples were incubated at 37 °C in a thermomixer for different time periods. The reaction was stopped by addition of 150 µL MeOH and kept on ice for 5 min. After centrifugation at 14,000 rpm for 12 min, the supernatants were filtered (Chromafil RC-20/15 MS, 0.2 μm) and stored in liquid nitrogen. When testing, aliquots of 60 µL (injection volume) were analyzed by analytical HPLC (HPLC Method). The calculation of t1/2 was obtained using Origin again.
as §1
µL 3.0 mM hydrolysis solutions) were prepared in 2 mL Eppendorf® vials.

[3] = Chemical hydrolysis in phosphate buffer saline (PBS, pH 7.3); assay type: physicochemical; settings: PBS pH 7.3, 37 °C, read-out: PBS pH 7.3 t 1/2 (converted)
Method: as §7
Second prepare 1.9 mM hydrolysis […]
as §8

HIV‐1 [HE] = assay: Anti-HIV activity, HIV-1 in wild-type CEM/0 cells; assay type: cell-based; settings: Human immunodeficiency virus 1, CCRF-CEM; wild-type CEM/0 cells, mean ±SD n = 2–3; read-out: Antiviral activity CEM/0 HIV‐1 [HE] EC50
in vitro [4] = settings: human, CEM/0 cells (wild-type CD4+ T-cells)
Method: All TriPPPro‐compounds 10 and 20, as well as their parent nucleosides and the corresponding NTPs, were evaluated for their antiviral activity (expressed as EC50 values) against HIV‐1 (wild‐type CEM/0 cells) and HIV‐2 (wild‐type CEM/0 cells and thymidine kinase‐deficient (CEM/TK^−) cells) with concomitant determination of cytotoxicity in the same cell line (Table 3 ).

HIV‐2 [ROD)] = assay: Anti-HIV activity, HIV-2 in thymidine kinase-deficient CEM/TK^− cells; assay type: cell-based; settings: Human immunodeficiency virus 2, CEM-TK(-), thymidine kinase-deficient CEM/TK^− cells, mean ±SD n = 2–3; read-out: Antiviral activity CEM/TK^− HIV‐2 [ROD)] EC50
Method: as §2, §3, §4, §5, §6

SMILES	half-life at 0.86 mM (in vitro [1]; Plasma (Citrate) t 1/2)	half-life at 0.86 mM (in vitro [1]; Plasma (Heparin) t 1/2)	half-life at 0.86 mM (in vitro [1]; t 1/2 in human plasma (over heparin and citrate plasma))	EC50 (HIV‐2 [ROD])	half-life at 0.45 mM (pig liver esterase (PLE))	half-life at 0.86 mM (in vitro [2])	half-life at 1.9 mM [3]	EC50 (HIV‐1 [HE])	EC50 (HIV‐2 [ROD)])	CC50 (in vitro [4])	Plasma (Citrate) t 1/2 (in vitro [1]; citrate-stabilized human plasma, 37 °C)	Plasma (Heparin) t 1/2 (in vitro [1]; heparin-stabilized human plasma, 37 °C)	t 1/2 in human plasma (over heparin and citrate plasma) (in vitro [1]; human plasma 37 °C, heparin and citrate taken together)
CCCCCCCCCCCCCCCCCCOP(=O)(OCc1ccc(OC(=O)CCCC)cc1)OP(=O)(O)OP(=O)(O)OC[C@@H]1C=C[C@H](n2cnc3c(NC4CC4)nc(N)nc32)C1 (some centres unmarked) [10hy]				0.29 ± 0.16 µM	0.97 h	1.3 h	1.92 days	0.96 ± 0.49 µM	0.21 ± 0.11 µM	> 100 µM			
CCCCCCCCCCCCCCCCCCOP(=O)(O)OP(=O)(O)OP(=O)(O)OC[C@H]1O[C@@H](n2ccc(=O)[nH]c2=O)C[C@@H]1F [20e, γ‐C18‐FddUTP]				0.39 ± 0.3 µM	> 150 h	> 20 h	> 83.3 days	0.092 ± 0.082 µM	3.56 ± 1.88 µM	63.7 ± 13.6 µM			
CCCCCCCCCCCCCCCCCCP(=O)(OCc1ccc(OC(=O)CCCC)cc1)OP(=O)(O)OP(=O)(O)OC[C@H]1O[C@@H](n2cc(Cl)c(=O)[nH]c2=O)C[C@@H]1F (some centres unmarked) [10dz]				0.51 ± 0.14 µM	1.3 h	> 10 h	27.9 days	2.02 ± 0.8 µM	4.66 ± 3.42 µM	54.9 µM			
Cc1cn([C@H]2C[C@H](N=[N+]=[N-])[C@@H](COP(=O)(O)O)O2)c(=O)[nH]c1=O [AZTMP, reference compound]											4.5 h	2.0 h	2.0 to 4.5 h

Now from value to compound, other results behind:

half-life at 0.86 mM (in vitro [1]; Plasma (Citrate) t 1/2)	half-life at 0.86 mM (in vitro [1]; Plasma (Heparin) t 1/2)	half-life at 0.86 mM (in vitro [1]; t 1/2 in human plasma (over heparin and citrate plasma))	EC50 (HIV‐2 [ROD])	half-life at 0.45 mM (pig liver esterase (PLE))	half-life at 0.86 mM (in vitro [2])	half-life at 1.9 mM [3]	EC50 (HIV‐1 [HE])	EC50 (HIV‐2 [ROD)])	SMILES	CC50 (in vitro [4])	Plasma (Citrate) t 1/2 (in vitro [1]; citrate-stabilized human plasma, 37 °C)	Plasma (Heparin) t 1/2 (in vitro [1]; heparin-stabilized human plasma, 37 °C)	t 1/2 in human plasma (over heparin and citrate plasma) (in vitro [1]; human plasma 37 °C, heparin and citrate taken together)
6.4 h	2.8 h	2.8 to 6.4 h							Cc1cn([C@H]2C[C@H](N=[N+]=[N-])[C@@H](COP(=O)(O)OP(=O)(O)O)O2)c(=O)[nH]c1=O [AZTDP, reference compound]				
			0.18 ± 0.15 µM	0.24 h	3.4 h	10.5 days	0.14 ± 0.065 µM	0.062 ± 0.059 µM	CCCCCCCCCCCCCCCCCCOP(=O)(OCc1ccc(OC(=O)CCCC)cc1)OP(=O)(O)OP(=O)(O)OC[C@@H]1O[C@H](n2cc(F)c(N)nc2=O)CS1 (some centres unmarked) [10cy, γ‐(AB‐C4;alkyl‐C18)‐FTCTP]	51.9 µM			
			5.37 ± 0.69 µM	> 150 h	> 10 h	> 83.3 days	> 10 µM	36.5 ± 34.7 µM	CCCCCCCCCCCCCCCCCCOP(=O)(OCCCC)OP(=O)(O)OP(=O)(O)OC[C@H]1O[C@@H](n2cc(/C=C/Br)c(=O)[nH]c2=O)C[C@@H]1O (some centres unmarked) [10gv]	48 ± 4.2 µM			
			2.87 ± 1.72 µM	0.3 h		25 days	8.57 ± 5.02 µM	11.1 ± 1.34 µM	CCCCCCCCCCCCCCCCCCOP(=O)(OCc1ccc(OC(=O)CCCC)cc1)OP(=O)(O)OP(=O)(O)OC[C@H]1O[C@@H](n2cc(/C=C/Br)c(=O)[nH]c2=O)C[C@@H]1O (some centres unmarked) [10gy]	52.1 µM			
